Test results: patent EP4818154A1, “EP4 AGONIST” (ONO Pharmaceutical Co., Ltd., priority 2023, dated 2025)

Key:
DSS colitis mouse model = assay: Dextran sodium sulfate (DSS)-induced ulcerative colitis mouse model; format: in vivo, C57BL/6 mice; conditions: oral once a day Day 0 to Day 6, 2% DSS drinking water
Experimental: Adult C57BL/6 mice were used in this assay. The day on which 2% DSS drinking water started was defined as Day 0. A DSS solution was placed in a transparent plastic water bottle, and the mice were allowed to freely drink from Day 0 to Day 7 via a metal nozzle to induce ulcerative colitis. The test substance was orally administered once a day at a dose of 10 mL/kg for 7 days from Day 0 to Day 6. Stool conditions were observed every day from Day 0 to Day 7, and a disease activity index (DAI) was evaluated according to a reference score (Diarrhea score 0: normal stool, 1: loose stool, 2: diarrhea stool, 3: watery stool. Bloody stool score 0: normal stool, 1: brown mild bloody stool, 2: reddish color in stool, 3: melena); DAI score = diarrhea score + bloody stool score […].
The compounds of the present disclosure were tested in this assay. Efficacy in this model is evidenced by a decrease in the DAI score when compared to that of vehicle-treated animals (control group).

[1] = tested on: monkey circulatory organ (blood pressure and heart rate); assay: Monkey po telemetry test (blood pressure and heart rate); conditions: for safety margin (dose basis): monkey no observed effect level compared with the effective amount in the mouse model of DSS-induced colitis; for no observed effect level on the monkey circulatory organ (blood pressure and heart rate): single oral administration, unrestrained, awake cynomolgus monkeys
Experimental: Regarding an action on the monkey circulatory organ under unrestrained conditions and awakening, the test substance was orally administered once to male cynomolgus monkeys (2 animals/dose) implanted with a telemetry transmitter (M11, Data Sciences International, Inc.), and blood pressure (systolic, diastolic, and mean blood pressure) and heart rate were continuously measured. The evaluation time point was set to before administration, 0.5, 1, 2, 4, 8, 10, 12, 16, or 24 hours after administration, and the average value for 1 minute at the evaluation time point was analyzed.

[2] = tested on: rat circulatory organ (blood pressure and heart rate); assay: Rat po circulatory organ evaluation test (blood pressure and heart rate); conditions: for safety margin (dose basis): rat no observed effect level compared with the effective amount in the mouse model of DSS-induced colitis; for no observed effect level on the rat circulatory organ (blood pressure and heart rate): single oral administration, unrestrained, awake rats
Excerpt: Regarding an action on the rat circulatory organ under unrestrained conditions and awakening, the test substance was orally administered once to Crl:CD (SD) male rats (4 animals/group) implanted with a telemetry transmitter (HD-S10, Data Sciences International, Inc.) or catheterized in the left carotid artery, and blood pressure (systolic, diastolic, and mean blood pressure) and heart rate were continuously measured.

Compound	suppression of the control group score (DAI score) (DSS colitis mouse model; 0.3 mpk)	safety margin (dose basis) [1]	no observed effect level on the monkey circulatory organ (blood pressure and heart rate) [1]	safety margin (dose basis) [2]	no observed effect level on the rat circulatory organ (blood pressure and heart rate) [2]	suppression of the control group score (DAI score) (DSS colitis mouse model; 1 mpk)	suppression of the control group score (DAI score) (DSS colitis mouse model; 3 mpk)
O=C(NCCS(=O)(=O)O)c1csc(SCCN2C(=O)CC[C@@H]2/C=C/[C@@H](O)CCCCCSc2ccccn2)n1 [Example 11, 2-[({2-[(2-{(2R)-2-[(1E,3S)-3-Hydroxy-8-(2-pyridinylthio)-1-octen-1-yl]-5-oxo-1-pyrrolidinyl}ethyl)thio]-1,3-thiazol-4-yl}carbonyl)amino]ethanesulfonic acid]	50%	1 times	0.3 mg/kg	100 times	30 mg/kg		
CN(CCCCC[C@H](O)/C=C/[C@H]1CCC(=O)N1CCSc1nc(C(=O)NCCS(=O)(=O)O)cs1)c1ccccc1 [2-({[2-({2-[(2R)-2-{(1E,3S)-3-Hydroxy-8-[methyl(phenyl)amino]-1-octen-1-yl}-5-oxo-1-pyrrolidinyl]ethyl}thio)-1,3-thiazol-4-yl]carbonyl}amino)ethanesulfonic acid]	50%	10 times	3 mg/kg	100 times	30 mg/kg		
O=C(O)CCCSCCN1C(=O)CC[C@@H]1/C=C/[C@@H](O)Cc1cccc(NC(=O)c2ccccc2)c1 [Example 10, 4-({2-[(2R)-2-{(1E,3S)-4-[3-(Benzoylamino)phenyl]-3-hydroxy-1-buten-1-yl}-5-oxo-1-pyrrolidinyl]ethyl}thio)butanoic acid]						50%	
COc1nccnc1SCCCCC[C@H](O)/C=C/[C@H]1CCC(=O)N1CCSc1nc(C(=O)NCCS(=O)(=O)O)cs1 [Example 12]		10 times	30 mg/kg	10 times	30 mg/kg		50%
O=C(O)c1csc(SCCN2C(=O)CC[C@@H]2/C=C/[C@@H](O)CCCCCSc2ccccn2)n1 [Example 1, 2-[(2-{(2R)-2-[(1E,3S)-3-Hydroxy-8-(2-pyridinylthio)-1-octen-1-yl]-5-oxo-1-pyrrolidinyl}ethyl)thio]-1,3-thiazole-4-carboxylic acid]	50%						
O=C(CCCSCCN1C(=O)CC[C@@H]1/C=C/[C@@H](O)Cc1cccc(NC(=O)c2ccccc2)c1)NCCS(=O)(=O)O [2-{[4-({2-[(2R)-2-{(1E,3S)-4-[3-(Benzoylamino)phenyl]-3-hydroxy-1-buten-1-yl}-5-oxo-1-pyrrolidinyl]ethyl}thio)butanoyl]amino}ethanesulfonic acid]				10 times	30 mg/kg		50%
CN(CCCCC[C@H](O)/C=C/[C@H]1CCC(=O)N1CCSc1nc(C(=O)O)cs1)c1ccccc1 [Example 2, 2-({2-[(2R)-2-{(1E,3S)-3-Hydroxy-8-[methyl(phenyl)amino]-1-octen-1-yl}-5-oxo-1-pyrrolidinyl]ethyl}thio)-1,3-thiazole-4-carboxylic acid]	50%						
